Tests used:
[1] = Rheology of peptide gel (frequency sweep of shear moduli); type: physicochemical; conditions: 1 wt % peptide gel at pH 4.4; cone and plate; constant stress 30 Pa; ω = 100 rad s^–1
From the text: (§1) Peptide […] is able to form a hydrogel under precisely defined conditions. […] The apple-green birefringence of the peptide gel stained with Congo red (Figure 6b) together with TEM images (Figure 6c) reveal that the hydrogel comprises a tight network of 20–50 nm wide peptide nanotapes. The viscoelastic response of the gel was studied by rheology. The linear regime was first identified by strain sweep experiments (Figure S5). The elastic modulus G′ > G′′ (the shear loss modulus) and G′ is weakly dependent on frequency and reaches a value >10^5 Pa at a high frequency (ω = 100 rad s^–1). These are all characteristic rheological signatures of gels, and the high frequency value of G′ is higher than that observed for many peptide hydrogels.[48] The FTIR spectrum shown in Figure 6e is very similar to that discussed for the solutions of 1 wt % […] at pH 4 and 5 and is consistent with a β-sheet secondary structure. The SAXS data was again fitted using a model form factor of Gaussian bilayers (Figure 6f). The XRD data is characterized by strong diffraction peaks at 10 and 4.7 Å, consistent with an amyloid cross-β diffraction pattern.[12],[49]−[51] The other weaker peaks can also be ascribed to β-sheet features.[49],[52]−[57]
Dynamic shear moduli were measured using a controlled stress AR-2000 rheometer from TA Instruments. […]

[2] = Hydrogel formation (tube inversion) as a function of pH; type: physicochemical; conditions: 1 wt % peptide in aqueous NaOH; cloudy gel, does not flow under tube inversion; liquid at the other pH values studied (pH 3-12)
From the text: as §1, with “The XRD data is characterized by strong diffraction peaks at 10 and 4.7 Å, consistent with an amyloid cross-β diffraction pattern.[12],[49]−[51] The other weaker peaks can also be ascribed to β-sheet features.[49],[52]−[57]” left out
Peptide […] was supplied by Peptide Synthetics (Peptide Protein Research Limited), Fareham, UK as a TFA salt. The molar mass by electrospray mass spectrometry is 1405.595 g mol^–1 and the purity is >95%, determined by high performance liquid chromatography (HPLC) in a gradient HPLC using an acetonitrile (0.1% TFA)/water (0.1% TFA) gradient with a Kinetex 2.6u XB-C18 100A column. […]

## RSAIEDLLFDKV
[1]
  shear elastic modulus G′ at high frequency: > 10^5 Pa
[2]
  pH at which hydrogel formation is observed: 4.4 pH

Reference: paper PMC8867915, “Amyloid and Hydrogel Formation of a Peptide Sequence from a Coronavirus Spike Protein” (ACS Nano, 2022)
